According to patent publication US20150218212A1, “FLUORINATED EPOXYKETONE-BASED TETRAPEPTIDE COMPOUNDS AND USES THEREOF AS PROTEASOME INHIBITORS” (FLUORINOV PHARMA INC., priority 2012, published 2015):

How the values were obtained:
Type in all cases: cell-based, human
MOLT-4 = assay: NCI screening panel, MOLT-4 (Leukemia)
Method: (§1) Representative compounds of Formula I were screened using the National Cancer Institute (NCI) screening panel, which consists of a panel of human tumor cell lines, representing leukemia, melanoma, and cancers of the lung, colon, ovary, breast, prostate and renal system.
(§2) After 24 h, two plates of each cell line are fixed in situ with TCA, to represent a measurement of the cell population for each cell line at the time of drug addition (Tz). Experimental drugs are solubilised in dimethyl sulfoxide at 400-fold the desired final maximum test concentration and stored frozen prior to use. At the time of drug addition, an aliquot of frozen concentrate is thawed and diluted to twice the desired final maximum test concentration with complete medium containing 50 μg/mL gentamicin. Additional four, 10-fold or ½ log serial dilutions are made to provide a total of five drug concentrations plus control. Aliquots of 100 μl of these different drug dilutions are added to the appropriate microtiter wells already containing 100 μl of medium, resulting in the required final drug concentrations.
(§3) Following drug addition, the plates are incubated for an additional 48 h at 37° C., 5% CO2, 95% air, and 100% relative humidity. For adherent cells, the assay is terminated by the addition of cold TCA (trichloroacetic acid). Cells are fixed in situ by the gentle addition of 50 μl of cold 50% (w/v) TCA (final concentration, 10% TCA) and incubated for 60 minutes at 4° C. The supernatant is discarded, and the plates are washed five times with tap water and air dried. Sulforhodamine B (SRB) solution (100 μl) at 0.4% (w/v) in 1% acetic acid is added to each well, and plates are incubated for 10 minutes at room temperature. After staining, unbound dye is removed by washing five times with 1% acetic acid and the plates are air dried. Bound stain is subsequently solubilised with 10 mM trizma base, and the absorbance is read on an automated plate reader at a wavelength of 515 nm. For suspension cells, the methodology is the same except that the assay is terminated by fixing settled cells at the bottom of the wells by gently adding 50 μl of 80% TCA (final concentration, 16% TCA). Using the seven absorbance measurements [time zero, (Tz), control growth, (C), and test growth in the presence of drug at the five concentration levels (Ti)], the percentage growth is calculated at each of the drug concentrations levels. Percentage growth inhibition is calculated as: [(Ti−Tz)/(C−Tz)]×100 for concentrations for which Ti>/=Tz and [(Ti−Tz)/Tz]×100 for concentrations for which Ti<Tz.
(§4) Three dose response parameters are calculated for each experimental agent. Growth inhibition of 50% (GI50) is calculated from [(Ti−Tz)/(C−Tz)]×100=50, which is the drug concentration resulting in a 50% reduction in the net protein increase (as measured by SRB staining) in control cells during the drug incubation. The drug concentration resulting in total growth inhibition (TGI) is calculated from Ti=Tz. The LC50 (concentration of drug resulting in a 50% reduction in the measured protein at the end of the drug treatment as compared to that at the beginning) indicating a net loss of cells following treatment is calculated from [(Ti−Tz)/Tz]×100=−50. Values are calculated for each of these three parameters if the level of activity is reached. However, if the effect is not reached or is exceeded, the value for that parameter is expressed as greater or less than the maximum or minimum concentration tested.

A549/ATCC = assay: NCI screening panel, A549/ATCC (Non-Small Cell Lung Cancer)
Method: as §1, §2, §3, §4

HCT-116 = assay: NCI screening panel, HCT-116 (Colon Cancer)
Method: as §1, §2, §3, §4

HT29 = assay: NCI screening panel, HT29 (Colon Cancer)
Method: as §1, §2, §3, §4

SW-620 = assay: NCI screening panel, SW-620 (Colon Cancer)
Method: as §1, §2, §3, §4

SNB-75 = assay: NCI screening panel, SNB-75 (CNS Cancer)
Method: as §1, §2, §3, §4

SK-MEL-28 = assay: NCI screening panel, SK-MEL-28 (Melanoma)
Method: as §1, §2, §3, §4

IGROV1 = assay: NCI screening panel, IGROV1 (Ovarian Cancer)
Method: as §1, §2, §3, §4

OVCAR-8 = assay: NCI screening panel, OVCAR-8 (Ovarian Cancer)
Method: as §1, §2, §3, §4

SK-OV-3 = assay: NCI screening panel, SK-OV-3 (Ovarian Cancer)
Method: as §1, §2, §3, §4

A498 = assay: NCI screening panel, A498 (Renal Cancer)
Method: as §1, §2, §3, §4

RXF 393 = assay: NCI screening panel, RXF 393 (Renal Cancer)
Method: as §1, §2, §3, §4

SN12C = assay: NCI screening panel, SN12C (Renal Cancer)
Method: as §1, §2, §3, §4

PC-3 = assay: NCI screening panel, PC-3 (Prostate Cancer)
Method: as §1, §2, §3, §4

BT-549 = assay: NCI screening panel, BT-549 (Breast Cancer)
Method: as §1, §2, §3, §4

In the case of `CC(C)C[C@H](NC(=O)[C@H](COC(F)F)NC(=O)[C@H](COC(F)F)NC(=O)[C@H](COC(F)F)NC(=O)CN1CCOCC1)C(=O)[C@@]1(C)CO1` [Example 17, (2S)-3-(difluoromethoxy)-N-[(1S)-1-(difluoromethoxymethyl)-2-[[(1S)-1-(difluoro-methoxymethyl)-2-[[(1S)-3-methyl-1-[(2R)-2-methyloxirane-2-carbonyl]butyl]amino]-2-oxo-ethyl]amino]-2-oxo-ethyl]-2-[(2-mor-pholinoacetyl)amino]-propanamide], the Log10GI50 (MOLT-4) is reported as −7.42, the Log10LC50 (MOLT-4) is reported as >−4.00 and the Log10TGI50 (MOLT-4) is reported as −6.41. The Log10GI50 (A549/ATCC) was −6.99, the Log10LC50 (A549/ATCC) was >−4.00 and the Log10TGI50 (A549/ATCC) was −5.06. The Log10GI50 (HCT-116) was −7.45, the Log10LC50 (HCT-116) was −4.50 and the Log10TGI50 (HCT-116) was −6.60. The Log10GI50 (HT29) was −7.30, the Log10LC50 (HT29) was >−4.00 and the Log10TGI50 (HT29) was −6.28. The Log10GI50 (SW-620) was −7.08, the Log10LC50 (SW-620) was >−4.00 and the Log10TGI50 (SW-620) was −4.95. The Log10GI50 (SNB-75) was −7.15, the Log10LC50 (SNB-75) was >−4.00 and the Log10TGI50 (SNB-75) was −6.39. The Log10GI50 (SK-MEL-28) was −6.97, the Log10LC50 (SK-MEL-28) was >−4.00 and the Log10TGI50 (SK-MEL-28) was −5.69. For the same molecule, the Log10GI50 (IGROV1) was −6.87, the Log10LC50 (IGROV1) was >−4.00 and the Log10TGI50 (IGROV1) was −5.82. For the same molecule, the Log10GI50 (OVCAR-8) was −6.31, the Log10LC50 (OVCAR-8) was >−4.00 and the Log10TGI50 (OVCAR-8) was −5.25. For the same molecule, the Log10GI50 (SK-OV-3) was −6.26, the Log10LC50 (SK-OV-3) was >−4.00 and the Log10TGI50 (SK-OV-3) was >−4.00. It also gave a Log10GI50 (A498) of −6.87, a Log10LC50 (A498) of −5.44 and a Log10TGI50 (A498) of −6.22. The Log10GI50 (RXF 393) was −6.48, the Log10LC50 (RXF 393) was −5.41 and the Log10TGI50 (RXF 393) was −5.94. The Log10GI50 (SN12C) was −6.71, the Log10LC50 (SN12C) was −5.06 and the Log10TGI50 (SN12C) was −6.08. It also gave a Log10GI50 (PC-3) of −6.76, a Log10LC50 (PC-3) of −5.02 and a Log10TGI50 (PC-3) of −6.12. The Log10GI50 (BT-549) was −7.11, the Log10LC50 (BT-549) was >−4.00 and the Log10TGI50 (BT-549) was −6.43.
